Patent US12503436B2, “Compounds and compositions for treating conditions associated with STING activity” (NOVARTIS PHARMA AG, priority 2021, dated 2025)

Biological target: STING (Homo sapiens, UniProt Q86WV6, G230A/H232R/R293Q/R71H)
Assay: STING reporter assay in THP1-Dual KO-IFNAR2 cells (2′3′cGAMP stimulation, luciferase reporter)
Type: cell-based
Conditions: 15 μM 2′3′cGAMP stimulation, 24 h, read-out: Pharmaron, THP1_IFNAR2 STING 24 h Luci Normalized: GeoMean EC50
How it was run: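 THP1-Dual KO-IFNAR2 cells (2×10E6 cells/mL) with compounds at 0.0017-100 μM final, stimulated with 15 μM final 2′3′cGAMP delivered by Lipofectamine 2000; 24 h at 37 °C. Luciferase in supernatant read with QUANTI-Luc Plus; EC50 derived from luminescence.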

STING, sequence (Q86WV6 whole entry R71H/G230A/H232R/R293Q): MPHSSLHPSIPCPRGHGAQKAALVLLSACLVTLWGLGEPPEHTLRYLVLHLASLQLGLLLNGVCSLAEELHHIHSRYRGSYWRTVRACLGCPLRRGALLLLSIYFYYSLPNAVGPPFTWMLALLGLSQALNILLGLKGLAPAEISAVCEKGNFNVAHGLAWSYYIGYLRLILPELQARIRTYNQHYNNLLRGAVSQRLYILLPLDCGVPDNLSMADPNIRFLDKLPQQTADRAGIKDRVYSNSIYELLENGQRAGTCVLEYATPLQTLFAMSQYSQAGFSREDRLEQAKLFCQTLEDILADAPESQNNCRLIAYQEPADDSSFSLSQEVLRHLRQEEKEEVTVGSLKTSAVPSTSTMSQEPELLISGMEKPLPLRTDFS

| Compound | EC50 |
| --- | --- |
| CC(C)(C)OC(=O)N1CC(C)(C(=O)Nc2c[nH]c3ccc(OCCc4ccc(C(F)(F)F)cc4)cc23)C1 [Compound 570, tert-butyl 3-methyl-3-((5-(4-(trifluoromethyl)phenethoxy)-1H-indol-3-yl)carbamoyl)azetidine-1-carboxylate] | 200 to 1000 nM |
| O=C(Nc1c[nH]c2ccc(O[C@H]3C[C@H](c4ccc(C(F)(F)F)cc4)C3)cc12)C1CC1(F)Cl (stereo partly drawn) [Compound 571, 2-chloro-2-fluoro-N-(5-(trans-3-(4-(trifluoromethyl)phenyl)cyclobutoxy)-1H-indol-3-yl)cyclopropane-1-carboxamide] | 200 to 1000 nM |
| COC1CC(C(=O)Nc2c[nH]c3ccc(O[C@H]4C[C@H](c5ccc(C(F)(F)F)cc5)C4)cc23)C1 (stereo partly drawn) [Compound 572, 3-methoxy-N-(5-(trans-3-(4-(trifluoromethyl)phenyl)cyclobutoxy)-1H-indol-3-yl)cyclobutane-1-carboxamide] | 40 to 200 nM |
| O=C(Nc1c[nH]c2ccc(O[C@H]3C[C@H](c4ccc(C(F)(F)F)cc4)C3)cc12)C1CC(O)C1 (stereo partly drawn) [Compound 573, 3-hydroxy-N-(5-(trans-3-(4-(trifluoromethyl)phenyl)cyclobutoxy)-1H-indol-3-yl)cyclobutane-1-carboxamide] | 40 to 200 nM |
| O=C(Nc1c[nH]c2ccc(O[C@H]3C[C@H](c4ccc(C(F)(F)F)cc4)C3)cc12)C1CC1(F)F (stereo partly drawn) [Compound 574, 2,2-difluoro-N-(5-(trans-3-(4-(trifluoromethyl)phenyl)cyclobutoxy)-1H-indol-3-yl)cyclopropane-1-carboxamide] | 40 to 200 nM |
| O=C(Nc1c[nH]c2ccc(O[C@H]3C[C@@H](c4ccc(C(F)(F)F)cc4)C3)cc12)C1CC1(F)Cl (stereo partly drawn) [Compound 575, 2-chloro-2-fluoro-N-(5-(cis-3-(4-(trifluoromethyl)phenyl)cyclobutoxy)-1H-indol-3-yl)cyclopropane-1-carboxamide] | 200 to 1000 nM |
| O=C(Nc1c[nH]c2ccc(O[C@H]3C[C@@H](c4ccc(C(F)(F)F)cc4)C3)cc12)C1CC(F)C1 (stereo partly drawn) [Compound 576, 3-fluoro-N-(5-(cis-3-(4-(trifluoromethyl)phenyl)cyclobutoxy)-1H-indol-3-yl)cyclobutane-1-carboxamide] | 40 to 200 nM |
| O=C(Nc1c[nH]c2ccc(OCC[C@@H]3C[C@@H]4CN(CC(F)(F)F)C[C@@H]4C3)cc12)C1CC1(F)Cl (stereo partly drawn) [Compound 577, 2-chloro-2-fluoro-N-(5-(2-((3aR,5r,6aS)-2-(2,2,2-trifluoroethyl)octahydrocyclopenta[c]pyrrol-5-yl)ethoxy)-1H-indol-3-yl)cyclopropane-1-carboxamide] | 200 to 1000 nM |
| CC(=O)Nc1c[nH]c2c(Br)cc(CCOc3ccc(C(F)(F)F)cc3)cc12 [Compound 578, N-(7-bromo-5-(2-(4-(trifluoromethyl)phenoxy)ethyl)-1H-indol-3-yl)acetamide] | 1000 to 5000 nM |
| CC1(C(=O)Nc2c[nH]c3ccc(O[C@H]4C[C@@H](c5ccc(C(F)(F)F)nc5)C4)cc23)CC1 [Compound 579, 1-methyl-N-(5-(cis-3-(6-(trifluoromethyl)pyridin-3-yl)cyclobutoxy)-1H-indol-3-yl)cyclopropane-1-carboxamide] | 200 to 1000 nM |
| CC(=O)Nc1c[nH]c2ccc(CCOc3cccnc3)cc12 [Compound 581, N-(5-(2-(pyridin-3-yloxy)ethyl)-1H-indol-3-yl)acetamide] | 5000 to 100000 nM |
| N#C[C@@H]1C[C@@H]1C(=O)Nc1c[nH]c2ccc(CCOc3ccc(C(F)(F)F)cc3)cc12 [Compound 582, (1S,2R)-2-cyano-N-(5-(2-(4-(trifluoromethyl)phenoxy)ethyl)-1H-indol-3-yl)cyclopropane-1-carboxamide] | 40 to 200 nM |
| O=C(Nc1c[nH]c2ccc(OCc3ccc(C(F)(F)F)cc3)cc12)C1CC(F)(F)C1 [Compound 584, 3,3-difluoro-N-(5-((4-(trifluoromethyl)benzyl)oxy)-1H-indol-3-yl)cyclobutane-1-carboxamide] | 200 to 1000 nM |
| N#C[C@H]1C[C@@H]1C(=O)Nc1c[nH]c2ccc(OCc3ccc(C(F)(F)F)cc3)cc12 [Compound 585, (1S,2S)-2-cyano-N-(5-((4-(trifluoromethyl)benzyl)oxy)-1H-indol-3-yl)cyclopropane-1-carboxamide] | 200 to 1000 nM |
| N#CC1(C(=O)Nc2c[nH]c3ccc(OCc4ccc(C(F)(F)F)cc4)cc23)CC1 [Compound 586, 1-cyano-N-(5-((4-(trifluoromethyl)benzyl)oxy)-1H-indol-3-yl)cyclopropane-1-carboxamide] | 200 to 1000 nM |
| O=C(Nc1c[nH]c2ccc(O[C@H]3C[C@@H](c4ccc(C(F)(F)F)cc4)C3)cc12)C1CC(F)(F)C1 [Compound 587, 3,3-difluoro-N-(5-(cis-3-(4-(trifluoromethyl)phenyl)cyclobutoxy)-1H-indol-3-yl)cyclobutane-1-carboxamide] | 40 to 200 nM |
| O=C(Nc1c[nH]c2ccc(OCC[C@@H]3C[C@@H]4CN(CC(F)(F)F)C[C@@H]4C3)cc12)C1CC(F)(F)C1 [Compound 588, 3,3-difluoro-N-(5-(2-((3aR,5r,6aS)-2-(2,2,2-trifluoroethyl)octahydrocyclopenta[c]pyrrol-5-yl)ethoxy)-1H-indol-3-yl)cyclobutane-1-carboxamide] | 40 to 200 nM |
| O=C(Nc1c[nH]c2ccc(OCC[C@@H]3C[C@@H]4CN(CC(F)(F)F)C[C@@H]4C3)cc12)C1CC(F)C1 (stereo partly drawn) [Compound 589, 3-fluoro-N-(5-(2-((3aR,5r,6aS)-2-(2,2,2-trifluoroethyl)octahydrocyclopenta[c]pyrrol-5-yl)ethoxy)-1H-indol-3-yl)cyclobutane-1-carboxamide] | 40 to 200 nM |
| CN1CC(C(=O)Nc2c[nH]c3ccc(CCOc4ccc(C(F)(F)F)cc4)cc23)C1 [Compound 590, 1-methyl-N-(5-(2-(4-(trifluoromethyl)phenoxy)ethyl)-1H-indol-3-yl)azetidine-3-carboxamide] | 1000 to 5000 nM |
| CC(C)(C)CC(=O)Nc1c[nH]c2ccc(CCOc3ccc(C(F)(F)F)cc3)cc12 [Compound 591, 3,3-dimethyl-N-(5-(2-(4-(trifluoromethyl)phenoxy)ethyl)-1H-indol-3-yl)butanamide] | 200 to 1000 nM |
| O=C(Nc1c[nH]c2ccc(CCOc3ccc(C(F)(F)F)cc3)cc12)C1CC1 [Compound 592, N-(5-(2-(4-(trifluoromethyl)phenoxy)ethyl)-1H-indol-3-yl)cyclopropanecarboxamide] | 200 to 1000 nM |
| O=C(Nc1c[nH]c2ccc(CCOc3ccc(C(F)(F)F)cc3)cc12)C1CC(F)C1 (stereo not shown) [Compound 593, 3-fluoro-N-(5-(2-(4-(trifluoromethyl)phenoxy)ethyl)-1H-indol-3-yl)cyclobutane-1-carboxamide] | 40 to 200 nM |
| CC1(C(=O)Nc2c[nH]c3ccc(CCOc4ccc(C(F)(F)F)cc4)cc23)CCOCC1 [Compound 594, 4-methyl-N-(5-(2-(4-(trifluoromethyl)phenoxy)ethyl)-1H-indol-3-yl)tetrahydro-2H-pyran-4-carboxamide] | 200 to 1000 nM |
| O=C(Nc1c[nH]c2ccc(CCOc3ccc(C(F)(F)F)cc3)cc12)C1CC1(F)F (stereo not shown) [Compound 595, 2,2-difluoro-N-(5-(2-(4-(trifluoromethyl)phenoxy)ethyl)-1H-indol-3-yl)cyclopropane-1-carboxamide] | 40 to 200 nM |
| cis-3-hydroxy-N-(5-(2-((3aR,5r,6aS)-2-(2,2,2-trifluoroethyl)octahydrocyclopenta[c]pyrrol-5-yl)ethoxy)-1H-indol-3-yl)cyclobutane-1-carboxamide [Compound 344] | 200 to 1000 nM |
